The target of assay [1] is AC17-4 RNA aptamer. The assay can be described thus: Affinity measurement by ITC, AC17-4. It counts as binding. The following applies: 37 °C. The protocol:
ITC experiments were carried out as described previously^26 with some modifications. Template DNA for in vitro transcription was prepared by primer extension using Q5 High-Fidelity DNA Polymerase. AC17-4 RNA aptamer (5′-[…]-3′ (SEQ ID NO: 50)) was prepared using HiScribe T7 High Yield RNA Synthesis Kit (NEB) according to the manufacturer's instructions. The transcription product (100 μl) was treated with 2 U TURBO DNase at 37° C. for 30 min. The RNA was precipitated with ammonium acetate and ethanol and dissolved in water. The solution was further extracted with phenol-chloroform and ethanol precipitated. The RNA was purified by denaturing polyacrylamide gel electrophoresis (PAGE) and the main band was extracted from the gel with TE buffer (10 mM Tris-HCl, pH 7.0, 0.1 mM EDTA). […] RNA concentration was determined by absorbance at 260 nm according to OligoCalc. […]
Titration was performed at 37° C. using MicroCal PEAQ-ITC (Malvern). […] Raw data were analysed by MicroCal PEAQ-ITC analysis software ver. […]
Conventional SELEX requires immobilization of the target molecule on solid phase on which an RNA pool containing randomized sequences are applied. […] The sequences enriched during the SELEX experiment were analyzed by high-throughput (Illumina) sequencing. […]
On the technique in general: Isothermal titration calorimetry measures the heat released or taken up as one component is titrated into another.

Assay [2] relates to hEPO expression in mice. The experiment in a line: In vivo hEPO assay in mice injected with AAV8 vectors. Further details: species or system BALB/c cAJc1 mice. On the procedure:
For AAV production, 293T cells seeded in cellstack5 (Corning) were cotransfected using PEI MAX (Polysciences Inc) with 227.9 μg of the plasmid encoding AAV8 replication and capsid proteins, 455.8 μg of the plasmid encoding helper proteins and 227.9 μg of the pAAV-CMV-hEPO-a8c or -control. At 6 days after transfection, cells and supernatants were harvested, then filtered and concentrated by KrosFlo Research Ili (Spectrum Labs, Inc) for AAV purification by affinity chromatography using AKTA avant 25 (GE healthcare). Then, the virus solutions were ultracentrifuged and dialyzed. Titers of the AAV solutions were determined by quantitative PCR using the AAVpro Titration Kit (for Real-Time PCR) Ver.2 (Takara).
For in vivo animal experiments, 7-week-old male BALB/c cAJc1 mice (CLEA Japan Inc.) were intravenously injected with 200 μl of PBS (as the control group) or purified AAV8 particles (3.0×10^10 virus genome (vg) per mouse) carrying hEPO gene with or without the CPP-a8c-AC17-4 riboswitch. After 13 days from AAV injection, mice were subjected to 24 μl blood collection from tail vein and the blood samples were immediately diluted with 96 μl. At 24 h after the blood collection, the mice were orally administrated 100 mg kg^−1 of ASP7967 in 0.5% methyl cellulose (FUJIFILM Wako Pure Chemical Corp) or 0.5% methyl cellulose as the vehicle solution. At 2, 4, 6, 8 and 24 h after the ASP7967 administration, blood samples were collected as described above. The blood samples were incubated on ice, then centrifuged at 1,200×g for 15 min at 4° C. to collect serum samples. The serum samples were stored at −80° C. and used for measurement of serum hEPO concentration by ELISA.
Next, we studied the riboswitch potency and functionality in vivo. […] Mice were intravenously injected with viral vectors AAV8-CMV-hEPO-control, AAV8-CMV-hEPO-a8c-AC17-4-CPP, or saline (WT). Two weeks after AAV injection, 100 mg kg^−1 dose of ASP7967 was orally administered to induce expression from the riboswitch-regulated vector. Blood was drawn before and at multiple time points after the oral administration (FIG. 9c). Secreted hEPO levels in the serum of the mice injected with the control AAV (AAV8-CMV-hEPO-control) were around 550 mIU ml^−1, and administration of 100 mg kg^−1 dose of the ligand had no effect during the observed time period (FIG. 9d, upper right). On the other hand, upon administration of 100 mg kg^−1 dose of the ligand, hEPO secretion levels were induced by riboswitch-regulated vector (AAV8-CMV-hEPO-a8c-AC17-4-CPP) reaching approximately 115 mIU mL-1 at 6-8 h postdosing, corresponding to a 7.2-fold increase over the mice dosed with the vehicle (FIG. 9d, lower left).

The Kd is the equilibrium constant for the complex coming apart. Lower therefore signals tighter binding.

Several values for one entry are separate records, joined by “and”; a condition that tells them apart may be missing. Equal values may be shown once. Entries after “also recorded” stand apart in the source; their conditions may differ.

The compound `Fc1ccc(Nc2nc(NCc3ncccn3)nc(Nc3ccccc3)n2)cc1` [ASP2905, reference compound] came in with a Kd in assay [1] of 48 nM.
Take `Fc1ccc(Nc2nc(NCc3ncccn3)nc(Nc3ccc(F)cc3)n2)cc1` [ASP7967]: the “hEPO secretion level (serum)” value in assay [2] (100 mg kg^−1 oral, 6-8 h postdosing, AAV8-CMV-hEPO-a8c-AC17-4-CPP) was “approximately 115 mIU mL-1”. The “increase of serum hEPO over vehicle” value in assay [2] (100 mg kg^−1 oral, AAV8-CMV-hEPO-a8c-AC17-4-CPP) is 7.2 fold and ~ 7.2 fold. In addition, the “effect of ligand on serum hEPO in mice injected with control AAV” value in assay [2] (100 mg kg^−1 oral, AAV8-CMV-hEPO-control) is on record as “no effect”. Besides, the “serum hEPO / transgene expression as ligand concentration declines” value in assay [2] (100 mg kg^−1 oral, after 6-8 h) is “subsequently decreased; also recorded: diminished as the ligand concentration in the target tissue declined”. Besides, the “hEPO after readministration of the ligand” value in assay [2] (readministration, data not shown) is on record as “reactivation of hEPO”.

The values above are taken from patent US20260327628A1, “AN RNA APTAMER THAT BINDS TO ASP7967 OR AN ANALOGUE THEREOF” (priority 2022, published 2026).
